# Results from patent US20220362167A1, “WATER-DISPERSIBLE CANNABIDIOL PRODUCT AND PREPARATION METHOD THEREFOR” (GUILIN LAYN NATURAL INGREDIENTS CORP., priority 2019, published 2022).
# Assay: Water solubility test of cannabidiol product
# Assay type: physicochemical
# Details: 50 mg in 500 mL distilled water, room temperature, stirred
# Description: Water Solubility Test of Cannabidiol Product
# Three parts of 500 mL of distilled water are taken. 50 mg of the cannabidiol product prepared in Example 1, Comparative Example 1 and Comparative Example 2 are added respectively at room temperature, and stirred, and recorded the time required for dissolution, with the cannabidiol as control.
structure (smiles),measurement,value
C=C(C)[C@@H]1CCC(C)=C[C@H]1c1c(O)cc(CCCCC)cc1O [cannabidiol],appearance of the solution,precipitation and delamination
